Data taken from ChEMBL document CHEMBL4184221, “Identification and optimization of soluble epoxide hydrolase inhibitors with dual potency towards fatty acid amide hydrolase” (Bioorg Med Chem Lett, 2018).
Calls of active or inactive are those of the source. No cut-off for these calls is given here.

Columns and labels:
[1] = molecular target: T1, Bifunctional epoxide hydrolase 2 (Homo sapiens, UniProt P34913); assay: Inhibition of human recombinant soluble epoxide hydrolase expressed in baculovirus-infected High Five cells S9 fraction using CMNPC substrate by fluorescence based assay; format: cell-based
T1 sequence (P34913 whole entry): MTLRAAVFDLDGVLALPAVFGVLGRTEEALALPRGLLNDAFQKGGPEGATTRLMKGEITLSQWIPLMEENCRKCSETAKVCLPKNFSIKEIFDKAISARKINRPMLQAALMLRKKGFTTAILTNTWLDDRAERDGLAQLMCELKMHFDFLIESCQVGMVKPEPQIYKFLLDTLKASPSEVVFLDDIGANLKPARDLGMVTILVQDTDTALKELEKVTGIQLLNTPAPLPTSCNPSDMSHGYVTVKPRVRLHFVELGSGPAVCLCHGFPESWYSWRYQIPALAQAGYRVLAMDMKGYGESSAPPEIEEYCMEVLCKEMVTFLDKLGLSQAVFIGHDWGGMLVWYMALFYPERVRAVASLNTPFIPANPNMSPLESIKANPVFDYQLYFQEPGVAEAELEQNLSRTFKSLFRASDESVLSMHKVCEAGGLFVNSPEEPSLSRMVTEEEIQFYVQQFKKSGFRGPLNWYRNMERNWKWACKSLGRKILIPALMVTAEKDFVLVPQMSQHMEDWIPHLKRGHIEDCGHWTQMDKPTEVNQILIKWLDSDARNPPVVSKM

[2] = molecular target: T2, Bifunctional epoxide hydrolase 2 (Homo sapiens) (UniProt P34913)
T2 sequence (whole entry): T1 sequence (P34913 whole entry)

Canis lupus familiaris = species on record: Canis lupus familiaris; assay: Inhibition of FAAH in dog brain microsomes using OMP substrate by fluorescence based assay; conditions: concentration not given here
Equus caballus = species on record: Equus caballus; assay: (§1) Inhibition of FAAH in horse brain microsomes using OMP substrate by fluorescence based assay; conditions: concentration not given here
[3] = as §1; parameters: species or system Equus caballus
Felis catus = species on record: Felis catus; assay: Inhibition of FAAH in cat brain microsomes using OMP substrate by fluorescence based assay; conditions: concentration not given here

Row | Compound | IC50 [1] [nM] | TDI [2] | further results
1 | O=C(Nc1ccc(Oc2ccc(C(=O)O)cc2)cc1)Nc1ccc(OC(F)(F)F)cc1 | 7 |  | 
2 | O=C(Nc1ccc(Cl)cc1)N[C@H]1CC[C@H](Oc2ccc(C(=O)O)cc2)CC1 | 7 |  | 
3 | O=C(NC1CCCCC1)N[C@H]1CC[C@H](Oc2ccc(C(=O)O)cc2)CC1 | 6 |  | 
4 | O=C(Nc1ccc(OC(F)(F)F)cc1)N[C@H]1CC[C@H](Oc2ccc(C(=O)O)cc2)CC1 |  | inactive | 
5 | NC(=O)c1cccc(-c2cccc(OC(=O)NC3CCCCC3)c2)c1 [URB-597] | 1100 | Active | inhibition (Canis lupus familiaris): > 80%; inhibition (Equus caballus): > 80%; IC50 [3]: 7 nM; inhibition (Felis catus): > 80%
